The results in this text go back to the supplement of paper PMC11061612.

What all share (test): combination Emax (second highest fraction inhibited in the dose matrix, 72 h); higher = more inhibition; extreme values may be limits of the assay
For test [1], the system named is A549 (Lung Adenocarcinoma). Put shortly: (§1)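 Bliss excess equals the observed combination effect minus the expected value EA + EB − EA·EB, where EA and EB are the effects of each agent alone. Combination Emax is the second-highest inhibition within the matrix. Inhibition was scaled from CellTiter-Glo 2.0 luminescence, with 0 set by vehicle wells and 1 by blank wells, after 72 hours of two-drug dosing of cells plated in 1536-well plates.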

Test [2] relates to BICR22 (Oral Cavity Carcinoma). Put shortly: as §1
Test [3] has as its system CAPAN-2 (Pancreatic Carcinoma). The essentials:
as §1

The subject of a further test is CAS-1 (Glioblastoma). Put shortly: as §1
The test system of test [4] is COLO-320-HSR (Colorectal Carcinoma). Put shortly: as §1
Test [5] relates to COR-L311 (Small Cell Lung Carcinoma). Put shortly: as §1
Test [6] concerns ECC10 (Gastric Carcinoma). Put shortly: as §1
The next test concerns FU97 (Gastric Carcinoma). Put shortly:
as §1

In test [7] the test system is HCC1954 (Breast Carcinoma). The essentials: as §1
For test [8], the system named is KARPAS-422 (B-Cell Non-Hodgkin's Lymphoma). Put shortly:
as §1

Another test has as its system LN-405 (Glioblastoma). Put shortly:
as §1

Test [9] has as its system NCI-H1650 (Lung Adenocarcinoma). Put shortly:
as §1

Test [10] concerns NCI-H2066 (Squamous Cell Lung Carcinoma). Put shortly:
as §1

The test system of test [11] is NCI-H64 (Small Cell Lung Carcinoma). The essentials:
as §1

In test [12] the test system is ONS-76 (Other Solid Carcinomas). The essentials: as §1
The test system of test [13] is OS-RC-2 (Kidney Carcinoma). The essentials:
as §1

In another test the test system is PA-1 (Ovarian Carcinoma). The essentials:
as §1

The test system of test [14] is SK-MES-1 (Squamous Cell Lung Carcinoma). Put shortly: as §1
Test [15] has as its system TT2609-C02 (Thyroid Gland Carcinoma). Put shortly:
as §1

For a further test, the system named is U-2-OS (Osteosarcoma). Put shortly: as §1

`CC1(C)CCC(CN2CCN(c3ccc(C(=O)NS(=O)(=O)c4ccc(NCC5CCOCC5)c([N+](=O)[O-])c4)c(Oc4cnc5[nH]ccc5c4)c3)CC2)=C(c2ccc(Cl)cc2)C1` [Venetoclax] + CN(C)CCCOc1ccc(-c2ccc3ncc4c(c3c2)n(C2CCOCC2)c(=O)n4C)cn1 [AZD0156] (first compound max 1 µM, 7x7, partner max 1 µM): the “combination Emax” value in test [1] amounted to 0.28; in test [2], 0.337; in test [3], 0.199; with CAS-1 (Glioblastoma), 0.239; in test [4], 0.198; in test [5], 0.604. Besides, the “combination Emax” value in test [6] was found to be 0.963; in the test with FU97 (Gastric Carcinoma), 0.462; in [7], 0.162; in test [8] it was 0.873; in the test on LN-405 (Glioblastoma), 0.306; in test [9] it was 0.104. Further, the “combination Emax” value in test [10] came to 0.156; in [11], 0.25; in [12], 0.725; in test [13], 0.249; with PA-1 (Ovarian Carcinoma), 0.3; in test [14], 0.216. The “combination Emax” value in test [15] worked out at 0.154; with U-2-OS (Osteosarcoma), 0.188.
Take `CC1(C)CCC(CN2CCN(c3ccc(C(=O)NS(=O)(=O)c4ccc(NCC5CCOCC5)c([N+](=O)[O-])c4)c(Oc4cnc5[nH]ccc5c4)c3)CC2)=C(c2ccc(Cl)cc2)C1` [Venetoclax] + COc1cc(Nc2ncc3c(n2)-c2ccc(Cl)cc2C(c2c(F)cccc2OC)=NC3)ccc1C(=O)O [Alisertib] (first compound max 1 µM, 7x7, partner max 10 µM): the “combination Emax” value in [1] was 0.721; in [2] it was 0.501; in test [3], 0.244; with CAS-1 (Glioblastoma), 0.744; in test [4], 0.296; in [5], 0.842. In addition, the “combination Emax” value is 0.963 in [6]; 0.484 with FU97 (Gastric Carcinoma); 0.36 in test [7]; 0.858 in test [8]; 0.513 with LN-405 (Glioblastoma); 0.493 in test [9]. The “combination Emax” value in [10] was found to be 0.285; in [11], 0.692; in test [12] it was 0.553; in test [13], 0.319; in the test with PA-1 (Ovarian Carcinoma), 0.927; in test [14], 0.4. Besides, the “combination Emax” value was 0.426 in test [15] and 0.4 in the test with U-2-OS (Osteosarcoma).
For the compound `CC1(C)CCC(CN2CCN(c3ccc(C(=O)NS(=O)(=O)c4ccc(NCC5CCOCC5)c([N+](=O)[O-])c4)c(Oc4cnc5[nH]ccc5c4)c3)CC2)=C(c2ccc(Cl)cc2)C1` [Venetoclax] + C[C@@H]1COCCN1C2=NC(=NC(=C2)C3(CC3)[S@](=N)(=O)C)C4=C5C=CNC5=NC=C4 [AZD6738] (first compound max 1 µM, 7x7, partner max 10 µM), the “combination Emax” value in test [1] is 0.716; in test [2] it was 0.768; in [3] it was 0.319; with CAS-1 (Glioblastoma), 0.623; in test [4] it was 0.561; in test [5] it was 0.694. The “combination Emax” value in [6] was determined as 0.98; in the test on FU97 (Gastric Carcinoma), 0.339; in test [7] it was 0.55; in [8] it was 0.956; with LN-405 (Glioblastoma) it was 0.483; in test [9] it was 0.402. Moreover, the “combination Emax” value in test [10] was determined as 0.384; in test [11], 0.882; in test [12] it was 0.865; in test [13], 0.399; in the test with PA-1 (Ovarian Carcinoma) it was 0.827; in test [14], 0.75. For the same compound, the figures for the “combination Emax” value (in test [15]; in the test with U-2-OS (Osteosarcoma)) were 0.317 and 0.586, respectively.
For `CC1(C)CCC(CN2CCN(c3ccc(C(=O)NS(=O)(=O)c4ccc(NCC5CCOCC5)c([N+](=O)[O-])c4)c(Oc4cnc5[nH]ccc5c4)c3)CC2)=C(c2ccc(Cl)cc2)C1` [Venetoclax] + C[C@@H](Nc1cc(F)cc(F)c1)c1cc(C(=O)N(C)C)cc2c(=O)cc(N3CCOCC3)oc12 [AZD8186] (first compound max 1 µM, 7x7, partner max 3 µM), the “combination Emax” value was determined as 0.471 in test [1]; 0.15 in test [2]; 0.194 in test [3]; 0.399 in the test on CAS-1 (Glioblastoma); 0.135 in test [4]; 0.768 in test [5]. Besides, the “combination Emax” value in test [6] was determined as 0.969; with FU97 (Gastric Carcinoma), 0.329; in test [7], 0.0913; in [8], 0.98; in the test with LN-405 (Glioblastoma) it was 0.335; in test [9] it was 0.255. The “combination Emax” value in [10] was determined as 0.215; in test [11], 0.335; in test [12], 0.746; in [13], 0.375; with PA-1 (Ovarian Carcinoma), 0.682; in [14] it was 0.257. Moreover, the figures for the “combination Emax” value (in test [15]; in the test with U-2-OS (Osteosarcoma)) were 0.162 and 0.139, respectively.
In the case of `CC1(C)CCC(CN2CCN(c3ccc(C(=O)NS(=O)(=O)c4ccc(NCC5CCOCC5)c([N+](=O)[O-])c4)c(Oc4cnc5[nH]ccc5c4)c3)CC2)=C(c2ccc(Cl)cc2)C1` [Venetoclax] + Cc1cc2ncnn2cc1Nc1ncc2c(n1)n(C1CCOCC1)c(=O)n2C [AZD7648] (first compound max 1 µM, 7x7, partner max 10 µM), the “combination Emax” value was 0.436 in [1]; 0.291 in test [2]; 0.219 in [3]; 0.279 in the test with CAS-1 (Glioblastoma); 0.174 in test [4]; 0.671 in [5]. Further, the “combination Emax” value in test [6] worked out at 0.955; in the test on FU97 (Gastric Carcinoma), 0.494; in test [7], 0.336; in [8] it was 0.897; in the test on LN-405 (Glioblastoma), 0.373; in [9], 0.108. Besides, the “combination Emax” value amounted to 0.273 in [10]; 0.255 in test [11]; 0.764 in test [12]; 0.274 in test [13]; 0.473 in the test on PA-1 (Ovarian Carcinoma); 0.155 in test [14]. The results for the “combination Emax” value (in test [15]; in the test on U-2-OS (Osteosarcoma)) were 0.341 and 0.206, respectively.
With `CC1(C)CCC(CN2CCN(c3ccc(C(=O)NS(=O)(=O)c4ccc(NCC5CCOCC5)c([N+](=O)[O-])c4)c(Oc4cnc5[nH]ccc5c4)c3)CC2)=C(c2ccc(Cl)cc2)C1` [Venetoclax] + Cn1cnc2c(F)c(Nc3ccc(Br)cc3Cl)c(C(=O)NOCCO)cc21 [Selumetinib] (first compound max 1 µM, 7x7, partner max 3 µM), the “combination Emax” value in test [1] came out at 0.611; in test [2], 0.141; in test [3], 0.364; in the test on CAS-1 (Glioblastoma), 0.158; in [4], 0.083; in test [5], 0.635. The “combination Emax” value was 0.937 in [6]; 0.314 with FU97 (Gastric Carcinoma); 0.186 in [7]; 0.793 in test [8]; 0.182 in the test with LN-405 (Glioblastoma); 0.0531 in test [9]. Also, the “combination Emax” value in [10] came out at 0.191; in test [11] it was 0.239; in test [12], 0.536; in [13] it was 0.169; in the test with PA-1 (Ovarian Carcinoma), 0.318; in test [14], 0.345. In addition, the “combination Emax” value in test [15] turned out to be 0.55; in the test with U-2-OS (Osteosarcoma), 0.169.
